Values quoted from earlier work, collected in publication PMC9232612, “A phase 1b randomised controlled trial of a glucagon-like peptide-1 and glucagon receptor dual agonist IBI362 (LY3305677) in Chinese patients with type 2 diabetes” (Nature Communications, 2022).

Tests used:
[1] = test system: patients with T2D; conditions: daily-dose, Japanese patients with T2D; cited from earlier work
Excerpt: Several GLP-1 and glucagon dual agonists have shown either glycaemic control or weight loss benefit in various settings. […] SAR425899, a […] GLP-1 and glucagon receptor dual agonist, achieved placebo-adjusted mean HbA1c level reductions up to 0.75% in patients with overweight or obesity and T2D[11].

[2] = phase 2a, after 49 days of drug exposure; ref Parker VER et al. JCEM 2021;105(3):803-20; cited from earlier work
Description: page 3: doses of IBI362 (4.5 and 6 mg). It would be helpful to provide the time course of the GI adverse events to ascertain whether they occurred during the up-titration phase and whether the symptoms persisted during the 12 weeks. Only one participant in the IBI362 4.5 mg cohort withdrew from the study due to decreased appetite. The cardiovascular safety profile of IBI362 reported in this manuscript raised some safety concerns and will be addressed in greater detail herein. Cardiovascular disorders were reported in 5 participants receiving IBI362 compared with one in each of the placebo and ...

## Cotadutide
[1]
  reduction in body weight from baseline to day 50 (up to): up to 3.3%
[2]
  mean change in diastolic BP: +1.16 mm Hg
  mean change in systolic BP: -2.8 mm Hg
  mean increase in heart rate: +7.1 BPM
